In one experiment the target is CDK8/CycC (Homo sapiens, UniProt P49336). Put plainly: Kinase profiling. The class given is biochemical. The note with it: 10 semi-logarithmic dilutions from 50 μM, singlicate.
Another experiment deals with CDK19/CycC (Homo sapiens, UniProt Q9BWU1). The experiment is described as follows: Kinase profiling. The class given is biochemical. The note with it: 10 semi-logarithmic dilutions from 50 μM, singlicate.
The next experiment addresses HIPK2 (Homo sapiens, UniProt Q9H2X6). The experiment is described as follows: Kinase profiling. Type of experiment: biochemical.
The next experiment concerns the target ERK1 (Homo sapiens, UniProt P27361). Put plainly: Kinase profiling. Type of experiment: biochemical. The note with it: 10 semi-logarithmic dilutions from 50 μM, singlicate.
A further experiment addresses CDK3/CycE1 (Homo sapiens, UniProt Q00526). Put plainly: Kinase profiling. The note with it: 10 semi-logarithmic dilutions from 50 μM, singlicate. Type of experiment: biochemical.
The target of a further experiment is CDC7/DBF4 (Homo sapiens, UniProt O00311). The experiment is described as follows: Kinase profiling. Type of experiment: biochemical.
The target of a further experiment is CDK3/CycC (Homo sapiens, UniProt Q00526). The experiment is described as follows: Kinase profiling. Type of experiment: biochemical. The note with it: 10 semi-logarithmic dilutions from 50 μM, singlicate.
For experiment [1], the system named is U87MG glioblastoma cell line. The experiment is described as follows: Proliferation assay: determination of GI50. Type of experiment: cell-based, human. The note with it: Table 3, 48 h, n = 3 independent experiments, read-out: GI50 U87MG. As to the method:
(§1) The following human tumor cell lines, all Retinoblastoma (Rb)-proficient, were used in this study: MDA-MB231 (breast cancer), MDA-MB453 (breast cancer), U87MG (glioblastoma) and H460 (lung cancer). MDA-MB468 (breast cancer) and SW1783 (glioblastoma) Rb-deficient cells were also included in the study, as well as the MCF10A non-transformed mammary epithelial cell line. Tumor cell lines were maintained in DMEM or RPMI-1640 medium, depending on the cell line, supplemented with 10% FBS. MCF10A cells were grown in complete mammary epithelial growth medium (MEGM, Lonza). Cell lines were authenticated by short tandem repeat (STR) loci profiling with the GenePrint® 10 System (Promega).
(§2) All human cancer cell lines (Table 2) were obtained from the American Type Culture Collection, and were maintained in DMEM (Hyclone) or RPMI-1640 medium (Sigma) supplemented with 10% fetal bovine serum (Sigma). Non-transformed MCF10 cell line was maintained in MEGM Mammary Epithelial Cell Growth Medium (Lonza). Immortalized mouse embryonic fibroblasts (MEFs) were maintained in DMEM with 10% fetal bovine serum.
(§3) 48 h later cells were fixed with PFA 4% for 15 minutes, stained with 10 μg/ml Hoechst 33342 (Molecular Probes, Thermo Fisher) for 30 minutes and washed twice with PBS. Cells were imaged in a high content screening system (Opera Phoenix™, Perkin Elmer) using a 20× dry objective (30 fields/well). Cell counts were determined by the Opera software (Perkin Elmer) and data were further processed with SPSS software. GI50 was calculated by estimating the absolute IC50 using dose-response inhibition tool in Prism6 (Graphpad Software Inc.).

The subject of experiment [2] is MCF10 non-transformed mammary epithelial cell line. The experiment is described as follows: Proliferation assay: determination of GI50. The note with it: Table 3, 48 h, n = 2 independent experiments. The class given is cell-based, human. Here is the method:
as §1, §2, §3

In experiment [3] the test system is MDA-MB-231 breast carcinoma cell line. Put plainly: Proliferation assay: determination of GI50. Type of experiment: cell-based, human. The note with it: Table 3, 48 h, n = 3 independent experiments, read-out: GI50 MDA-MB231. Here is the method:
as §1, §2, §3

For experiment [4], the system named is H460 lung carcinoma cell line. Put plainly: Proliferation assay: determination of GI50. The note with it: Table 3, 48 h, n = 2 independent experiments. The class given is cell-based, human. Here is the method:
as §1, §2, §3

The target in a further experiment is CDK12wt/CycK (Homo sapiens, UniProt Q9NYV4). Put plainly: Kinase profiling. The class given is biochemical. The note with it: 10 semi-logarithmic dilutions from 50 μM, singlicate.
For the next experiment, the target named is T1, AKT1 aa1-480 (Homo sapiens, UniProt P31749).
T1 construct: AKT1 aa1-480
Put plainly: Kinase profiling. The class given is biochemical. The note with it: 10 semi-logarithmic dilutions from 50 μM, singlicate.

The target in a further experiment is CDK5/p25NCK (Homo sapiens, UniProt Q00535). Put plainly: Kinase profiling. The class given is biochemical. The note with it: 10 semi-logarithmic dilutions from 50 μM, singlicate.
Another experiment addresses PIM1 (Homo sapiens, UniProt P11309). The experiment is described as follows: Kinase profiling. The class given is biochemical. The note with it: 10 semi-logarithmic dilutions from 50 μM, singlicate.
Another experiment addresses PCTAIRE1/CycY (Homo sapiens, UniProt Q00536). The experiment is described as follows: Kinase profiling. The note with it: 10 semi-logarithmic dilutions from 50 μM, singlicate. Type of experiment: biochemical.
In experiment [5] the test system is MDA-MB-231 human breast cancer cells. The experiment is described as follows: Cell cycle analysis (DNA content, flow cytometry). Type of experiment: cell-based. The note with it: GI50 concentration; FIG. 1. Here is the method: FIG. 1 depicts DNA content profiles of MDA-MB-231 human breast cancer cells treated with subject compounds or commercial CDK inhibitors, showing the percentage of cells at the different cell cycle phases after 48 hours of the treatments indicated. (n=6 technical replicates).
Cells were collected by trypsinization, washed with PBS and fixed with cold 70% ethanol. Cells were treated with 250 μg/ml RNase (Qiagen) for 30 minutes at 37° C. and stained with 10 μg/ml Propidium Iodide (Sigma). Cell cycle was analyzed by flow cytometry using a LSR Fortessa Analyzer. Cell cycle profiles were generated and analyzed with FlowJo software.
Cells were collected by tripsinization at several times after treatment with the indicated compounds and, then, fixed with cold 70% Ethanol. DNA content was determined by staining with propidium iodide (10 μg/ml, Sigma Aldrich). Data acquisition was performed with a LSR Fortessa analyzer (BD Biosciences) and analysed using FlowJo software.
Background: A flow cytometer gives signals particle by particle.

Another experiment has as its target T2, DYRK2 (Homo sapiens, UniProt Q92630).
T2 sequence (Q92630 1-601): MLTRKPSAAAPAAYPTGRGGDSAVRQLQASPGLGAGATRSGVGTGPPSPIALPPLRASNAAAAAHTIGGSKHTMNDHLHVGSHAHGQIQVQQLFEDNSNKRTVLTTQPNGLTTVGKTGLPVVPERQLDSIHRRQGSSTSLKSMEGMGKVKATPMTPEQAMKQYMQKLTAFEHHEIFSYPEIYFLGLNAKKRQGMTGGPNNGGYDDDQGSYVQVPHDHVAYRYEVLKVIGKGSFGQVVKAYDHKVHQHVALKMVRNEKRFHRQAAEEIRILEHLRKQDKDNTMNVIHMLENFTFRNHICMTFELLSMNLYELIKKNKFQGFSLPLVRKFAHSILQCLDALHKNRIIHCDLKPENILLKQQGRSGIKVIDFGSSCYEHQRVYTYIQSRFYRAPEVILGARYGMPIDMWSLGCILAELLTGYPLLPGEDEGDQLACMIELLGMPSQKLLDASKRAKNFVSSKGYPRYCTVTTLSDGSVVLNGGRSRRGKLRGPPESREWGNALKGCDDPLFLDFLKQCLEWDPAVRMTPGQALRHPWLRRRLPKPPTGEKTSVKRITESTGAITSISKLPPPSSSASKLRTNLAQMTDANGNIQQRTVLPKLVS
The experiment is described as follows: Kinase profiling. The class given is biochemical.

The target in another experiment is CDK5/p35NCK (Homo sapiens, UniProt Q00535). Put plainly: Kinase profiling. The note with it: 10 semi-logarithmic dilutions from 50 μM, singlicate. Type of experiment: biochemical.
The target in a further experiment is CDK7/CycH/MAT1 (Homo sapiens, UniProt P50613). The experiment is described as follows: Kinase profiling. The class given is biochemical. The note with it: 10 semi-logarithmic dilutions from 50 μM, singlicate.
The target of another experiment is DYRK1A (Homo sapiens, UniProt Q13627). The experiment is described as follows: Kinase profiling. Type of experiment: biochemical. The note with it: 10 semi-logarithmic dilutions from 50 μM, singlicate.
The mark [6] stands for this setting: 10 semi-logarithmic dilutions from 50 μM, singlicate, read-out: IC50 HIPK2.
Where [7] appears, read: 10 semi-logarithmic dilutions from 50 μM, singlicate, read-out: IC50 CDC7/DBF4.

The record followed here is patent publication US20230042936A1, “PYRIDO[2,3-d]PYRIMIDIN-7(8H)-ONES AS CDK INHIBITORS” (PROSENESTAR LLC, priority 2020, published 2023).

Like-named read-outs stand apart in the source and are kept apart here.

CDC7/DBF4, sequence (O00311 whole entry): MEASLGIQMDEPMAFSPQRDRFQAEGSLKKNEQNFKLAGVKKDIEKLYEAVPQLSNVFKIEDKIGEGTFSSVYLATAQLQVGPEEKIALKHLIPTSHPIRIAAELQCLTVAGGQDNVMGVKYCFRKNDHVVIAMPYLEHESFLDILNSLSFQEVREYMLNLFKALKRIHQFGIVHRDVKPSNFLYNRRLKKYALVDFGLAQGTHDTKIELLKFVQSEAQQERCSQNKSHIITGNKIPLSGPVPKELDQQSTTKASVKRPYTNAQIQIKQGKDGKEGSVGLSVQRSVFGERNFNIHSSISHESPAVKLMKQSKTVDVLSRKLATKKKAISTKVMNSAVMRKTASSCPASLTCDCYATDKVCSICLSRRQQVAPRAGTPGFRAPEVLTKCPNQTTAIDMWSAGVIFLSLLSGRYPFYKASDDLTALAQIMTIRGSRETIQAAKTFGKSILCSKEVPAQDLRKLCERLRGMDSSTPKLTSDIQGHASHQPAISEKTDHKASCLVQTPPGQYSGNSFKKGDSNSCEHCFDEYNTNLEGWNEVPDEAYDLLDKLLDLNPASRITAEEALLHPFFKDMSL
CDC7/DBF4, sequence (Q9UBU7 whole entry partner): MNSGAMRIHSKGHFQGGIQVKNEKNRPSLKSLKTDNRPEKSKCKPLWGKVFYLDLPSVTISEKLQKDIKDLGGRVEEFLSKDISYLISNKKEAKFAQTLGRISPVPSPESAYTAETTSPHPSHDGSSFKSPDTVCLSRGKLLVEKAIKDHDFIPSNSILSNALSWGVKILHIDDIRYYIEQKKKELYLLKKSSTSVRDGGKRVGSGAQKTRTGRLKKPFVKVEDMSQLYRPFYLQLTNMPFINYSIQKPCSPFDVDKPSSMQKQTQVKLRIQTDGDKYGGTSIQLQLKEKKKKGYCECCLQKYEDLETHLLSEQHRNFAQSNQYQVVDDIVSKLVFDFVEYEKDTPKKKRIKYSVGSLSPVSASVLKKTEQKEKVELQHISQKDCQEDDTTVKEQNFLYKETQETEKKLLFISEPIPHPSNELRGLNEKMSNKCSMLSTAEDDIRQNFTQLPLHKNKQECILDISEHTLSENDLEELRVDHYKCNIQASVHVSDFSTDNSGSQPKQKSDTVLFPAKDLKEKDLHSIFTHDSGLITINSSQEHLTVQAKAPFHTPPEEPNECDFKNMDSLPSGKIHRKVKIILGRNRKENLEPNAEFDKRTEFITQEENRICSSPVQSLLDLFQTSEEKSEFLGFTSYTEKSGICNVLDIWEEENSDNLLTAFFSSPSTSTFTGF
HIPK2, sequence (Q9H2X6 whole entry): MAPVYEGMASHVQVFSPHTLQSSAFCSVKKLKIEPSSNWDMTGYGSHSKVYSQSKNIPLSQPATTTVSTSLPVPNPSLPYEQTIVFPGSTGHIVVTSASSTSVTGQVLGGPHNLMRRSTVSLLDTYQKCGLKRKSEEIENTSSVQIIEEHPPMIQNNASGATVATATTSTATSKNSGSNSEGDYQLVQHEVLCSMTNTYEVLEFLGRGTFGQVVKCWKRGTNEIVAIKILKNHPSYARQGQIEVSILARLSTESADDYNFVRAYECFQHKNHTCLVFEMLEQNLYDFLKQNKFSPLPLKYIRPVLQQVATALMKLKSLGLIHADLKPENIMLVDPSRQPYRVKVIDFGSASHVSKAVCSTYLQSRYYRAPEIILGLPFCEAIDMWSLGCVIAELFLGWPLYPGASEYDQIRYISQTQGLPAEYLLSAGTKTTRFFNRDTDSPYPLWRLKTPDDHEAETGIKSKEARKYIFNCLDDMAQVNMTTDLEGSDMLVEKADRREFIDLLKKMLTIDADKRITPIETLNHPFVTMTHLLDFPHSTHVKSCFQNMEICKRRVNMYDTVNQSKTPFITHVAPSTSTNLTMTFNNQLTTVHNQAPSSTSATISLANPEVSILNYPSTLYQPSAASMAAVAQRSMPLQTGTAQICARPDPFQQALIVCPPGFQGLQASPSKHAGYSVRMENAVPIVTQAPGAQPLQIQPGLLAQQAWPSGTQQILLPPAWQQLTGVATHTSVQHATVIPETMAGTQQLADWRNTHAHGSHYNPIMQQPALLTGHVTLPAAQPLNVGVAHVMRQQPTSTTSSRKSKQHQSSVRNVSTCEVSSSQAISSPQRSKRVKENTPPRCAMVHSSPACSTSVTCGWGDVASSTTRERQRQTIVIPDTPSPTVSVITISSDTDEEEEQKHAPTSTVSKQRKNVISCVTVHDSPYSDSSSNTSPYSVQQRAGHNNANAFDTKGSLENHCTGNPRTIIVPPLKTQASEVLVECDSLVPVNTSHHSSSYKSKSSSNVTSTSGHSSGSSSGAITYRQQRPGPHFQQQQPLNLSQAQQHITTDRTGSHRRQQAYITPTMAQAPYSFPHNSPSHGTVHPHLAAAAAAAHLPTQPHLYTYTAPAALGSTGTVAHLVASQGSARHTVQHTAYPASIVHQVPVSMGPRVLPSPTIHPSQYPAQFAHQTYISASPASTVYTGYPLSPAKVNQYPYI
ERK1, sequence (P27361 whole entry): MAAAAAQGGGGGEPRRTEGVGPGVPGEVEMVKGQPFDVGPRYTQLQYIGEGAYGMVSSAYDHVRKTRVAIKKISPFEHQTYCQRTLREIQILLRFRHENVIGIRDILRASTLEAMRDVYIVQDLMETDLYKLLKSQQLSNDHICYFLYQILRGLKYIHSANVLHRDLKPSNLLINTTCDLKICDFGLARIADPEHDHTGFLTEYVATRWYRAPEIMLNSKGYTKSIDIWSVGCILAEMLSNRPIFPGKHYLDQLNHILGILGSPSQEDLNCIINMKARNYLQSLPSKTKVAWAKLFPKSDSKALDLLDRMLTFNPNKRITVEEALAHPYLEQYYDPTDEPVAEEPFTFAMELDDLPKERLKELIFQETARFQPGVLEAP
CDK12wt/CycK, sequence (Q9NYV4 whole entry, the tested form may be a part): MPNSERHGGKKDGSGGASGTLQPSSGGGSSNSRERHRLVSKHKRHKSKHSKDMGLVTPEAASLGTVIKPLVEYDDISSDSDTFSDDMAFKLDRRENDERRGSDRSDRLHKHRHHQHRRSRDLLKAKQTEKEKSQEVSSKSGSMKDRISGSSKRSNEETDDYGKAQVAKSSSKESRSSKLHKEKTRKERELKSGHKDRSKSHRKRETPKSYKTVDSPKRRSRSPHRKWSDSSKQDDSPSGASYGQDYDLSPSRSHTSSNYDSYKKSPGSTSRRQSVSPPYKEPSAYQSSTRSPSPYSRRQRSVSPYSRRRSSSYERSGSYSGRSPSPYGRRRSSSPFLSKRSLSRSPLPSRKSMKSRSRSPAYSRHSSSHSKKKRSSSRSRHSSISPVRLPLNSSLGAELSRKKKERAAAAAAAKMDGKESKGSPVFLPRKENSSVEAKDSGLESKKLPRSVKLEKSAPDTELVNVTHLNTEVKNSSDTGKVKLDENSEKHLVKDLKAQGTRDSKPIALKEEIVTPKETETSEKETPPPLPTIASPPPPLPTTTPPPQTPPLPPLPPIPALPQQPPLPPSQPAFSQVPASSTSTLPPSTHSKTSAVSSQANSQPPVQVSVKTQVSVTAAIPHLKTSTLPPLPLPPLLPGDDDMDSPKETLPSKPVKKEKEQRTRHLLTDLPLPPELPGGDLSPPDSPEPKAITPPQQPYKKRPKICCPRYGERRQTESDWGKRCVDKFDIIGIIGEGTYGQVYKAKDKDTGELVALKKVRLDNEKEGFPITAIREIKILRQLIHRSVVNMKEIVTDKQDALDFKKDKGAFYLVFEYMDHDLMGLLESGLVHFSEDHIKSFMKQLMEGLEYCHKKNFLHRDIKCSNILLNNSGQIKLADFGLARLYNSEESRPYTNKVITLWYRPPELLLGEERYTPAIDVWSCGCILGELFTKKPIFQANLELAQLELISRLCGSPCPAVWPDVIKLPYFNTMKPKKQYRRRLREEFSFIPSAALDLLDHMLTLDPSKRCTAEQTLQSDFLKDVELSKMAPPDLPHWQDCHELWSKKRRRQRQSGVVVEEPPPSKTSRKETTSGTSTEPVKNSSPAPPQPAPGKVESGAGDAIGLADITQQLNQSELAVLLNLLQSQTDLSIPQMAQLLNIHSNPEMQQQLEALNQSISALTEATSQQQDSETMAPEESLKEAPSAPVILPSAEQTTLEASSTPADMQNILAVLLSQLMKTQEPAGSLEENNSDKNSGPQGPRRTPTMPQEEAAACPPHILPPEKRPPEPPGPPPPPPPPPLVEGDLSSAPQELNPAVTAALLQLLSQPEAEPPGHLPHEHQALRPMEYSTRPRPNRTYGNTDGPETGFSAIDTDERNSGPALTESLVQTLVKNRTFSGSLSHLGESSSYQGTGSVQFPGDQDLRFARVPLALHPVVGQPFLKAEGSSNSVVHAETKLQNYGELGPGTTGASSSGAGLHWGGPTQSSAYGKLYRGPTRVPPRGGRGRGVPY
CDK12wt/CycK, sequence (O75909 whole entry partner, the tested form may be a part): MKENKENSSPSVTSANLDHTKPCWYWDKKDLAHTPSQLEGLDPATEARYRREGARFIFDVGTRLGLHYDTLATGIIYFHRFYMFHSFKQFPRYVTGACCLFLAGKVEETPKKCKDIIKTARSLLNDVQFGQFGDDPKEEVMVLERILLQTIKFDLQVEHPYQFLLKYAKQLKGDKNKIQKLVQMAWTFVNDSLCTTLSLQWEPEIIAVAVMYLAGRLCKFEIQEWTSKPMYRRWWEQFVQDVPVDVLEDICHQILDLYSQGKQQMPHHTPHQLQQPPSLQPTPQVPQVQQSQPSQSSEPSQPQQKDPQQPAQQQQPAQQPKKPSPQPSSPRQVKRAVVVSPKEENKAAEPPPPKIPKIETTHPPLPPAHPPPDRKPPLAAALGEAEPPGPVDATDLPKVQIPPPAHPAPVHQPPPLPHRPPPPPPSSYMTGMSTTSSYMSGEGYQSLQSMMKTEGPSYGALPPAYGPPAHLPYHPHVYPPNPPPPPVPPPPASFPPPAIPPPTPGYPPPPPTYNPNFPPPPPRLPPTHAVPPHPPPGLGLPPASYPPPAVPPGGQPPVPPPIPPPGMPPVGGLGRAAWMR

For orientation: GI50 means the concentration giving 50% growth inhibition. For the compound `CCN1CCN(Cc2ccc(Nc3ncc(F)c(-c4cc(F)c5nc(C)n(C(C)C)c5c4)n3)nc2)CC1` [Abemaciclib, reference compound], the IC50 at CDK8/CycC is > 50 µM; against CDK19/CycC, > 50 µM; at HIPK2 (setting [6]), 46.4 µM; at ERK1 it was > 50 µM; against CDK3/CycE1 it was > 50 µM; at CDC7/DBF4 (setting [7]) it was > 50 µM. Also, the results for the IC50 on CDK3/CycC, on CDK12wt/CycK and at AKT1 aa1-480 were 49.7 µM, 21 µM and > 50 µM, respectively. The GI50 in [1] (Homo sapiens, U-87 MG) was 0.47 µM; in [2] (Homo sapiens, MCF10), 1.24 µM; in [3] (Homo sapiens, MDA-MB-231) it was 1.5 µM; in experiment [4] (Homo sapiens, NCI-H460), 3.1 µM.
For `O=C1NC(=NCc2cccs2)S/C1=C\c1ccc2ncccc2c1` [RO-3306, reference compound], the GI50 in [1] was > 50 µM; in experiment [2], 2.8 µM; in experiment [3], 3.2 µM; in [4] it was 25.6 µM.
For `CN(C)C(=O)c1cc2cnc(Nc3ccc(N4CCNCC4)cn3)nc2n1C1CCCC1` [Ribociclib, reference compound], the IC50 was found to be 2.19 µM on CDK5/p25NCK; 0.0244 µM against PIM1; 0.589 µM on PCTAIRE1/CycY; 2.02 µM at CDK8/CycC; 0.362 µM against CDK19/CycC; 0.0139 µM at DYRK2 (10 semi-logarithmic dilutions from 50 μM, singlicate, read-out: IC50 DYRK2). Moreover, the IC50 on HIPK2 (setting [6]) was 0.0397 µM; on ERK1 it was > 50 µM; on CDK5/p35NCK, 0.641 µM; on CDK3/CycE1, 1.66 µM; at CDC7/DBF4 (setting [7]), 0.318 µM; against CDK3/CycC, 0.323 µM. For the same compound, the IC50 at CDK12wt/CycK was 0.495 µM; on CDK7/CycH/MAT1, 7.35 µM; against DYRK1A, 0.0145 µM; against AKT1 aa1-480, > 50 µM. In experiment [5], the “cell cycle arrest by DNA content” value is “robust G0/G1-phase arrest”. For the same compound, the GI50 is 0.26 µM in [1] (Homo sapiens, U-87 MG); 0.54 µM in experiment [2] (Homo sapiens, MCF10); 0.7 µM in experiment [3] (Homo sapiens, MDA-MB-231); 1.47 µM in experiment [4] (Homo sapiens, NCI-H460).
Turning to `CC[C@H](CO)Nc1nc(NCc2ccccc2)c2ncn(C(C)C)c2n1` [Roscovitine, reference compound], the IC50 is 38.1 µM against DYRK2, > 50 µM on HIPK2 and 42.1 µM on CDC7/DBF4.
